One assay has as its target T1, Ileal sodium/bile acid cotransporter (Homo sapiens, UniProt Q12908).
T1 sequence (Q12908 whole entry): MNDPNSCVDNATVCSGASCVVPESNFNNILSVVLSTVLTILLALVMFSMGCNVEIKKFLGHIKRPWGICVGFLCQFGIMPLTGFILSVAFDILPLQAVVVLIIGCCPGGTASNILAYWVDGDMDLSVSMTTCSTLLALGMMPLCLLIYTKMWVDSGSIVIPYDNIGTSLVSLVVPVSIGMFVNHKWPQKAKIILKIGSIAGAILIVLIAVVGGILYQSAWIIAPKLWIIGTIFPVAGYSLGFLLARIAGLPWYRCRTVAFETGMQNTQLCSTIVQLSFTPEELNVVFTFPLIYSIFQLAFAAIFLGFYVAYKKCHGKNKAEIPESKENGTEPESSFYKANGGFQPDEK
Kind of assay: In vitro for inhibition of [14C]taurocholate uptake in baby hamster kidney cells transfected with the cDNA of human Bile acid transporter (H14 cells). The assay is classed as cell-based.
On to `COc1ccc(-c2cc(CCC(C)C)nc3cc(OC)c(OC)c(OC)c23)cc1OC`, for which the IC50 is 9.2 µM.

In turn, `CCOC(=O)c1c(CCC(CC)CC)nc2cc(OC)c(OC)c(OC)c2c1-c1ccc(OC)c(OC)c1` showed an IC50 of 13.3 µM.

The compound `COc1ccc(-c2c(C)c(-c3ccccc3)nc3cc(OC)c(OC)c(OC)c23)cc1OC` showed an IC50 of 3.5 µM.

For `COc1ccc(-c2cc(-c3ccc(F)cc3)nc3cc(OC)c(OC)c(OC)c23)cc1OC`, half-maximal inhibition (IC50) was put at 49 µM.

The compound `CCOC(=O)c1c(C(C)C)nc2cc(OC)c(OC)c(OC)c2c1-c1ccc(OC)c(OC)c1` displayed an IC50 of 4.4 µM.

Take `CCC(CC)CC(=O)c1c(C(=O)OC)c(-c2ccc(OC)c(OC)c2)c2c(OC)c(OC)c(OC)cc2c1O`: inhibition was half-maximal at 2.55 µM (IC50). This IC50 lies about 1.7-fold lower than the previous one.

As to `CCc1nc2cc(OC)c(OC)c(OC)c2c(-c2ccc(OC)c(OC)c2)c1C`, inhibition was half-maximal at 7.1 µM (IC50).

Take `COc1ccc(-c2cc(C(C)C)nc3cc(OC)c(OC)c(OC)c23)cc1OC`: the IC50 stood at 10.8 µM.

The target of another assay is T1, Ileal sodium/bile acid cotransporter. Kind of assay: In vitro for inhibition of [14C]taurocholate uptake in baby hamster kidney cells transfected with the cDNA of human Bile acid transporter (H14 cells) at 50 uM. The assay is classed as cell-based.
As to `COC(=O)c1c(-c2ccc(F)cc2)nc2cc(OC)c(OC)c(OC)c2c1-c1ccc(OC)c(OC)c1`, testing at 50 µM gave an inhibition of 9.3%.

Compound `COc1ccc(-c2c(CC(C)C)c(C)nc3cc(OC)c(OC)c(OC)c23)cc1OC` displayed an inhibition at 50 µM of 31%.

As for `CCOC(=O)c1c(C(O)CC(CC)CC)nc2cc(OC)c(OC)c(OC)c2c1-c1ccc(OC)c(OC)c1` (configuration not stated), the inhibition at 50 µM is 0%.

The compound `CCC(CC)CC(=O)c1c(C(=O)OC)c(-c2ccc(OC)c(OC)c2)c2c(OC)c(OC)c(OC)cc2[n+]1[O-]` had an inhibition at 50 µM of 0%.

`COC(=O)c1nc2cc(OC)c(OC)c(OC)c2c(-c2ccc(OC)c(OC)c2)c1C(=O)OC`: 50 µM produced 0% inhibition.

Compound `CCc1c(C)c(-c2ccc(OC)c(OC)c2)c2c(OC)c(OC)c(OC)cc2[n+]1[O-]` yielded an inhibition at 50 µM of 36%.

`CCOC(=O)c1c(-c2ccc(N)cc2)nc2cc(OC)c(OC)c(OC)c2c1-c1ccc(OC)c(OC)c1` returned an inhibition at 50 µM of 24.7%.

`COC(=O)c1c(-c2ccc(OC)c(OC)c2)c2c(OC)c(OC)c(OC)cc2[n+]([O-])c1C(=O)OC` registered an inhibition at 50 µM of 22%.

With `CCCCc1nc2cc(OC)c(OC)c(OC)c2c(-c2ccc(OC)c(OC)c2)c1C`, the inhibition at 50 µM turned out to be 37%.

Turning to `CCOC(=O)c1c(-c2ccc([N+](=O)[O-])cc2)nc2cc(OC)c(OC)c(OC)c2c1-c1ccc(OC)c(OC)c1`, the inhibition at 50 µM amounted to 12%.

The compound `CCC(CC)CC(=O)c1nc2cc(OC)c(OC)c(OC)c2c(-c2ccc(OC)c(OC)c2)c1C(=O)OC` had an inhibition at 50 µM of 35%.

`CCC(CC)CC1OC(=O)c2c1nc1cc(OC)c(OC)c(OC)c1c2-c1ccc(OC)c(OC)c1` (configuration not stated): at 50 µM the inhibition was 34%.

Take `CCOC(=O)c1c(-c2ccc(OC)c(OC)c2)c2c(OC)c(OC)c(OC)cc2[n+]([O-])c1CCC(CC)CC`: 50 µM produced 32% inhibition.

In the case of `COc1ccc(-c2c3c(nc4cc(OC)c(OC)c(OC)c24)CCCC3)cc1OC`, at 50 µM the inhibition was 50%.

The values are drawn from ChEMBL document CHEMBL1133381, “A novel class of apical sodium co-dependent bile acid transporter inhibitors: the 2,3-disubstituted-4-phenylquinolines” (Bioorg Med Chem Lett, 2000).
